According to publication PMC5760531, “Action Potential Recording and Pro-arrhythmia Risk Analysis in Human Ventricular Trabeculae” (Frontiers in Physiology, 2018):

Test system: human ventricular trabeculae
Assay: Action potential recording and pro-arrhythmic score analysis in human ventricular trabeculae (hVT);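 note: sharp microelectrode action potential recordings at 37°C in Tyrode-perfused trabeculae, 4 cumulative concentrations each applied 31 min, values averaged over last 30 APs, vehicle 0.1% DMSO as control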
Settings: for Refractoriness Escape (raw data) / Beat Escape (raw data) / EADs (raw data): n=4 trabeculae

Nc1nnc(-c2cccc(Cl)c2Cl)c(N)n1 [LAMOTRIGINE, Lamotrigine]
Refractoriness Escape (raw data) (1Hz, 59-FOLD free ETPC (17µM)): 0 | AMAX (average raw data) (2Hz, 0.6-FOLD free ETPC (17µM)): 97 | AMAX percentage change compared to vehicle control (2Hz, 0.6-FOLD free ETPC (17µM)): -7% | APD30 (average raw data) (2Hz, 0.6-FOLD free ETPC (17µM)): 107 | APD30 percentage change compared to vehicle control (2Hz, 0.6-FOLD free ETPC (17µM)): 2% | APD50 (average raw data) (2Hz, 0.6-FOLD free ETPC (17µM)): 149 | APD50 percentage change compared to vehicle control (2Hz, 0.6-FOLD free ETPC (17µM)): 3% | APD90 (average raw data) (2Hz, 0.6-FOLD free ETPC (17µM)): 232 | APD90 percentage change compared to vehicle control (2Hz, 0.6-FOLD free ETPC (17µM)): 2% | Alternans (average raw data) (2Hz, 0.6-FOLD free ETPC (17µM)): 0.95 | Alternans percentage change compared to vehicle control (2Hz, 0.6-FOLD free ETPC (17µM)): -59% | Beat Escape percentage change compared to vehicle control (2Hz, 0.6-FOLD free ETPC (17µM)): 0% | EADs percentage change compared to vehicle control (2Hz, 0.6-FOLD free ETPC (17µM)): 0% | ERP (average raw data) (2Hz, 0.6-FOLD free ETPC (17µM)): 0.46 | ERP percentage change compared to vehicle control (2Hz, 0.6-FOLD free ETPC (17µM)): 4% | Max Dispersion (average raw data) (2Hz, 0.6-FOLD free ETPC (17µM)): 6.98 | Max Dispersion percentage change compared to vehicle control (2Hz, 0.6-FOLD free ETPC (17µM)): 7% | RMP (average raw data) (2Hz, 0.6-FOLD free ETPC (17µM)): -82 | RMP percentage change compared to vehicle control (2Hz, 0.6-FOLD free ETPC (17µM)): -3% | Refractoriness Escape percentage change compared to vehicle control (2Hz, 0.6-FOLD free ETPC (17µM)): 0% | STV (average raw data) (2Hz, 0.6-FOLD free ETPC (17µM)): 0.58 | Triangulation (average raw data) (2Hz, 0.6-FOLD free ETPC (17µM)): 124 | Triangulation percentage change compared to vehicle control (2Hz, 0.6-FOLD free ETPC (17µM)): 2% | Beat Escape (raw data) (2Hz, 0.6-FOLD free ETPC (17µM)): 0 | EADs (raw data) (2Hz, 0.6-FOLD free ETPC (17µM)): 0 | Refractoriness Escape (raw data) (2Hz, 0.6-FOLD free ETPC (17µM)): 0 | AMAX (average raw data) (2Hz, 6-FOLD free ETPC (17µM)): 103 | AMAX percentage change compared to vehicle control (2Hz, 6-FOLD free ETPC (17µM)): -2% | APD30 (average raw data) (2Hz, 6-FOLD free ETPC (17µM)): 103 | APD30 percentage change compared to vehicle control (2Hz, 6-FOLD free ETPC (17µM)): -1% | APD50 (average raw data) (2Hz, 6-FOLD free ETPC (17µM)): 139 | APD50 percentage change compared to vehicle control (2Hz, 6-FOLD free ETPC (17µM)): -3% | APD90 (average raw data) (2Hz, 6-FOLD free ETPC (17µM)): 221 | APD90 percentage change compared to vehicle control (2Hz, 6-FOLD free ETPC (17µM)): -3% | Alternans (average raw data) (2Hz, 6-FOLD free ETPC (17µM)): 4.34 | Alternans percentage change compared to vehicle control (2Hz, 6-FOLD free ETPC (17µM)): 90% | Beat Escape percentage change compared to vehicle control (2Hz, 6-FOLD free ETPC (17µM)): 25% | EADs percentage change compared to vehicle control (2Hz, 6-FOLD free ETPC (17µM)): 0% | ERP (average raw data) (2Hz, 6-FOLD free ETPC (17µM)): 0.41 | ERP percentage change compared to vehicle control (2Hz, 6-FOLD free ETPC (17µM)): -7% | Max Dispersion (average raw data) (2Hz, 6-FOLD free ETPC (17µM)): 10.50 | Max Dispersion percentage change compared to vehicle control (2Hz, 6-FOLD free ETPC (17µM)): 62% | RMP (average raw data) (2Hz, 6-FOLD free ETPC (17µM)): -87 | RMP percentage change compared to vehicle control (2Hz, 6-FOLD free ETPC (17µM)): 3% | Refractoriness Escape percentage change compared to vehicle control (2Hz, 6-FOLD free ETPC (17µM)): 0% | STV (average raw data) (2Hz, 6-FOLD free ETPC (17µM)): 2.93 | Triangulation (average raw data) (2Hz, 6-FOLD free ETPC (17µM)): 117 | Triangulation percentage change compared to vehicle control (2Hz, 6-FOLD free ETPC (17µM)): -4% | Beat Escape (raw data) (2Hz, 6-FOLD free ETPC (17µM)): 1 | EADs (raw data) (2Hz, 6-FOLD free ETPC (17µM)): 0 | Refractoriness Escape (raw data) (2Hz, 6-FOLD free ETPC (17µM)): 0 | AMAX (average raw data) (2Hz, 18-FOLD free ETPC (17µM)): 85 | AMAX percentage change compared to vehicle control (2Hz, 18-FOLD free ETPC (17µM)): -16% | APD30 (average raw data) (2Hz, 18-FOLD free ETPC (17µM)): 110 | APD30 percentage change compared to vehicle control (2Hz, 18-FOLD free ETPC (17µM)): 4% | APD50 (average raw data) (2Hz, 18-FOLD free ETPC (17µM)): 139 | APD50 percentage change compared to vehicle control (2Hz, 18-FOLD free ETPC (17µM)): -4% | APD90 (average raw data) (2Hz, 18-FOLD free ETPC (17µM)): 227 | APD90 percentage change compared to vehicle control (2Hz, 18-FOLD free ETPC (17µM)): 2% | Alternans (average raw data) (2Hz, 18-FOLD free ETPC (17µM)): 34.70 | Alternans percentage change compared to vehicle control (2Hz, 18-FOLD free ETPC (17µM)): 1417% | Beat Escape percentage change compared to vehicle control (2Hz, 18-FOLD free ETPC (17µM)): 100% | EADs percentage change compared to vehicle control (2Hz, 18-FOLD free ETPC (17µM)): 0% | ERP (average raw data) (2Hz, 18-FOLD free ETPC (17µM)): 0.33 | ERP percentage change compared to vehicle control (2Hz, 18-FOLD free ETPC (17µM)): -25% | Max Dispersion (average raw data) (2Hz, 18-FOLD free ETPC (17µM)): 42.23 | Max Dispersion percentage change compared to vehicle control (2Hz, 18-FOLD free ETPC (17µM)): 550% | RMP (average raw data) (2Hz, 18-FOLD free ETPC (17µM)): -90 | RMP percentage change compared to vehicle control (2Hz, 18-FOLD free ETPC (17µM)): 10% | Refractoriness Escape percentage change compared to vehicle control (2Hz, 18-FOLD free ETPC (17µM)): 0% | STV (average raw data) (2Hz, 18-FOLD free ETPC (17µM)): 18.59 | Triangulation (average raw data) (2Hz, 18-FOLD free ETPC (17µM)): 117 | Triangulation percentage change compared to vehicle control (2Hz, 18-FOLD free ETPC (17µM)): -1% | Beat Escape (raw data) (2Hz, 18-FOLD free ETPC (17µM)): 4 | EADs (raw data) (2Hz, 18-FOLD free ETPC (17µM)): 0 | Refractoriness Escape (raw data) (2Hz, 18-FOLD free ETPC (17µM)): 0 | AMAX (average raw data) (2Hz, 59-FOLD free ETPC (17µM)): 48 | AMAX percentage change compared to vehicle control (2Hz, 59-FOLD free ETPC (17µM)): -52% | APD30 (average raw data) (2Hz, 59-FOLD free ETPC (17µM)): 106 | APD30 percentage change compared to vehicle control (2Hz, 59-FOLD free ETPC (17µM)): 4% | APD50 (average raw data) (2Hz, 59-FOLD free ETPC (17µM)): 145 | APD50 percentage change compared to vehicle control (2Hz, 59-FOLD free ETPC (17µM)): 7% | APD90 (average raw data) (2Hz, 59-FOLD free ETPC (17µM)): 268 | APD90 percentage change compared to vehicle control (2Hz, 59-FOLD free ETPC (17µM)): 34% | Alternans (average raw data) (2Hz, 59-FOLD free ETPC (17µM)): 3.93 | Alternans percentage change compared to vehicle control (2Hz, 59-FOLD free ETPC (17µM)): 72% | Beat Escape percentage change compared to vehicle control (2Hz, 59-FOLD free ETPC (17µM)): 100% | EADs percentage change compared to vehicle control (2Hz, 59-FOLD free ETPC (17µM)): 0% | ERP (average raw data) (2Hz, 59-FOLD free ETPC (17µM)): 0.41 | ERP percentage change compared to vehicle control (2Hz, 59-FOLD free ETPC (17µM)): -7% | Max Dispersion (average raw data) (2Hz, 59-FOLD free ETPC (17µM)): 21.90 | Max Dispersion percentage change compared to vehicle control (2Hz, 59-FOLD free ETPC (17µM)): 237% | RMP (average raw data) (2Hz, 59-FOLD free ETPC (17µM)): -74 | RMP percentage change compared to vehicle control (2Hz, 59-FOLD free ETPC (17µM)): -6% | Refractoriness Escape percentage change compared to vehicle control (2Hz, 59-FOLD free ETPC (17µM)): 0% | STV (average raw data) (2Hz, 59-FOLD free ETPC (17µM)): 2.81 | Triangulation (average raw data) (2Hz, 59-FOLD free ETPC (17µM)): 162 | Triangulation percentage change compared to vehicle control (2Hz, 59-FOLD free ETPC (17µM)): 64% | Beat Escape (raw data) (2Hz, 59-FOLD free ETPC (17µM)): 4 | EADs (raw data) (2Hz, 59-FOLD free ETPC (17µM)): 0 | Refractoriness Escape (raw data) (2Hz, 59-FOLD free ETPC (17µM)): 0 | TdP identification by pro-arrhythmic score (at 10-fold human free ETPC, score >10 unsafe, <10 safe): TdP positive | pro-arrhythmic score (at 100, 300, and 1,000 μM): above 40 | pro-arrhythmic score (at therapeutic exposure): below 10
